# According to US10344019B2 (priority 2010, dated 2019):
# pEC50: −log10 of the molar value. Where two headings read alike, the source gives them in different places.
# Tests used:
# Experiment in all cases: microbe, parasite or virus in culture
# Type in all cases: cell-based
# [1] = system: HCV 1a RLuc cells (dicistronic genotype 1a H77 replicon, RLuc reporter); details: read-out: 1a
# Outline: (§1)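 Replicon cells stably carrying the listed RLuc-encoding dicistronic replicons were seeded and treated with DMSO serial dilutions of compound (10 mM stocks) diluted into culture medium. After 72 h, cells were lysed and Renilla luciferase activity measured. EC50 was derived by non-linear regression.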
# [2] = system: HCV 1b RLuc cells (dicistronic genotype 1b Con1 replicon, RLuc reporter); details: Hepatitis C virus, read-out: 1b (nM)
# Outline: as §1
# [3] = system: HCV 2a JFH-1 Rluc cells (dicistronic genotype 2a JFH-1 replicon, RLuc reporter); details: Hepatitis C virus, genotype 2a JFH-1 replicon, read-out: 2a JFH
# Outline: as §1
# [4] = system: HCV 3a RLuc cells (NS5A chimeric genotype 1b Con1 replicon with consensus genotype 3a NS5A gene); details: Hepatitis C virus
# Outline: as §1
# [5] = system: HCV 4a Rluc cells (NS5A chimeric genotype 1b Con1 replicon with genotype 4a NS5A gene); details: Hepatitis C virus, read-out: 4a
# Outline: as §1
# [6] = Hepatitis C virus, genotype 1a replicon
# [7] = read-out: 3a, genotype 3a replicon
# [8] = Hepatitis C virus, genotype 1a H77 replicon, RLuc reporter
# [9] = read-out: 3a, genotype 3a NS5A chimeric 1b Con1 replicon
# [10] = Hepatitis C virus, 72 h, Table 2, genotype 1a H77 replicon, 72 hours
# [11] = read-out: 3a, Table 2, genotype 3a NS5A chimeric replicon
# [12] = Hepatitis C virus, 72 h, Table 1, genotype 1a H77 replicon, 72 hours
# [13] = read-out: 3a, Table 1, genotype 3a NS5A chimeric replicon
SMILES,EC50 [2] [nM],pEC50 [5],"pEC50 [1, 8]",pEC50 ([3]; RLuc reporter),"pEC50 [4, 9]",other results
COC(=O)N[C@H](C(=O)N1CCC[C@H]1c1nc(Cl)c(-c2ccc(-c3ccc(-c4[nH]c([C@@H]5CCCN5C(=O)[C@@H](NC(=O)OC)C5CCOCC5)nc4Cl)cc3)cc2)[nH]1)C1CCOCC1 [Example 353],0.493,9.00 to 12.00,–,–,–,"pEC50 [1, 6]: 9.00 to 12.00; pEC50 [3]: 9.00 to 12.00; pEC50 [4, 7]: 9.00 to 12.00"
COC(=O)N[C@H](C(=O)N1CCC[C@H]1c1nc2ccc3cc(-c4ccc5c(c4)CCc4nc(C6CC7(CN6C(=O)[C@H](NC(=O)OC)c6ccccc6)OCCO7)[nH]c4-5)ccc3c2[nH]1)C(C)C (stereo partly drawn) [Example 369],0.047,9.00 to 12.00,–,–,–,"pEC50 [1, 6]: 9.00 to 12.00; pEC50 [3]: 9.00 to 12.00; pEC50 [4, 7]: 9.00 to 12.00"
COC(=O)N[C@H](C(=O)N1CCC[C@H]1c1nc2ccc(-c3ccc4c(c3)sc3cc(-c5cnc([C@@H]6CCCN6C(=O)[C@H](NC(=O)OC)c6ccccc6)[nH]5)ccc34)cc2[nH]1)[C@@H](C)OC [Example 251],0.01,9.00 to 12.00,9.00 to 12.00,9.00 to 12.00,9.00 to 12.00,–
COC(=O)N[C@H](C(=O)N1CCC[C@H]1c1ncc(-c2ccc3cc(-c4ccc(-c5cnc([C@@H]6CC7(CC7)CN6C(=O)[C@H](NC(=O)OC)c6ccccc6)[nH]5)cc4)ccc3c2)[nH]1)C1CCOCC1 [Example 236],0.011,9.00 to 12.00,9.00 to 12.00,9.00 to 12.00,9.00 to 12.00,–
COC(=O)N[C@H](C(=O)N1[C@@H]2CC[C@@H](C2)[C@H]1c1ncc(-c2ccc3cc(-c4ccc5c(ccc6nc([C@@H]7CCCN7C(=O)[C@H](NC(=O)OC)c7ccccc7)[nH]c65)c4)ccc3c2)[nH]1)[C@@H](C)OC [Example 102],–,9.00 to 12.00,–,–,–,"pEC50 [1, 10]: 9.00 to 12.00; EC50 ([2]; 72 h): 0.009 nM; pEC50 ([3]; 72 h, Table 2, 72 hours): 9.00 to 12.00; pEC50 [4, 11]: 9.00 to 12.00"
COC(=O)N[C@H](C(=O)N1[C@@H]2CC[C@@H](C2)[C@H]1c1ncc(-c2ccc(-c3ccc4cc(-c5cnc([C@@H]6CCCN6C(=O)[C@H](NC(=O)OC)c6ccccc6)[nH]5)ccc4c3)cc2)[nH]1)[C@@H](C)OC [Example 72],–,9.00 to 12.00,–,–,–,"pEC50 [1, 10]: 9.00 to 12.00; EC50 ([2]; 72 h): 0.006 nM; pEC50 ([3]; 72 h, Table 2, 72 hours): 9.00 to 12.00; pEC50 [4, 11]: 9.00 to 12.00"
COC(=O)N[C@H](C(=O)N1CCC[C@H]1c1nc2ccc3cc(-c4ccc5cc(-c6cnc([C@@H]7COCCN7C(=O)[C@H](NC(=O)OC)c7ccccc7)[nH]6)ccc5c4)ccc3c2[nH]1)C(C)C [Example 216],0.006,9.00 to 12.00,9.00 to 12.00,9.00 to 12.00,9.00 to 12.00,–
COC(=O)N[C@H](C(=O)N1CCC[C@H]1c1ncc(-c2cc3c4c(c2)CCc2cc(-c5cnc([C@@H]6CCCN6C(=O)[C@@H](NC(=O)OC)C6CCOCC6)[nH]5)cc(c2-4)CC3)[nH]1)C(C)C [Example 23],–,9.00 to 12.00,–,–,–,"pEC50 [1, 12]: 9.00 to 12.00; EC50 ([2]; 72 h): 0.067 nM; pEC50 ([3]; 72 h, Table 1, 72 hours): 9.00 to 12.00; pEC50 [4, 13]: 9.00 to 12.00"
COC(=O)N[C@@H](C(=O)N1CCC[C@H]1c1ncc(-c2ccc3cc(-c4ccc5c(c4)CCc4nc([C@@H]6CCCN6C(=O)[C@@H](NC(=O)C6CC6)C6CCOCC6)[nH]c4-5)ccc3c2)[nH]1)c1ccccc1 [Example 280],0.047,9.00 to 12.00,7.36 to 9.00,7.36 to 9.00,9.00 to 12.00,–
COC(=O)N[C@H](C(=O)N1CCC[C@H]1c1ncc(-c2ccc3cc(-c4ccc(-c5cnc([C@@H]6[C@@H]7CC[C@@H](C7)N6C(=O)[C@H](NC(=O)OC)c6ccccc6)[nH]5)cc4)ccc3c2)[nH]1)C(C)C [Example 51],–,9.00 to 12.00,–,–,–,"pEC50 [1, 10]: 7.36 to 9.00; EC50 ([2]; 72 h): 0.012 nM; pEC50 ([3]; 72 h, Table 2, 72 hours): 7.36 to 9.00; pEC50 [4, 11]: 8.30 to 9.00"
COC(=O)NC(C(=O)N1[C@@H]2CC[C@@H](C2)[C@H]1c1ncc(-c2ccc(-c3ccc4c(ccc5nc([C@@H]6C[C@H]7C[C@H]7N6C(=O)[C@@H](NC(=O)OC)C(C)C)[nH]c54)c3)cc2F)[nH]1)[C@@H](C)OC (stereo partly drawn) [Example 321],0.006,9.00 to 12.00,–,–,–,"pEC50 [1, 6]: 9.00 to 12.00; pEC50 [3]: 9.00 to 12.00; pEC50 [4, 7]: 9.00 to 12.00"
COC(=O)N[C@H](C(=O)N1[C@@H]2CC[C@@H](C2)[C@H]1c1ncc(-c2ccc(-c3ccc4c(ccc5nc([C@@H]6CCCN6C(=O)[C@H](NC(=O)OC)c6ccccc6)[nH]c54)c3)cc2F)[nH]1)C(C)C [Example 312],0.011,9.00 to 12.00,–,–,–,"pEC50 [1, 6]: 7.36 to 9.00; pEC50 [3]: 9.00 to 12.00; pEC50 [4, 7]: 9.00 to 12.00"
COC(=O)N[C@H](C(=O)N1CCC[C@H]1c1nc2ccc3cc(-c4ccc(-c5cnc([C@@H]6CCCN6C(=O)[C@H](NC(=O)OC)c6ccccc6)[nH]5)cc4C#CC4CC4)ccc3c2[nH]1)C(C)C [Example 351],0.008,9.00 to 12.00,–,–,–,"pEC50 [1, 6]: 9.00 to 12.00; pEC50 [3]: 9.00 to 12.00; pEC50 [4, 7]: 9.00 to 12.00"
COC(=O)N[C@H](C(=O)N1[C@@H]2CC[C@@H](C2)[C@H]1c1nc2c([nH]1)-c1ccc(-c3ccc4c(ccc5nc([C@@H]6CCCN6C(=O)[C@@H](NC(=O)OC)C6CCOCC6)[nH]c54)c3)cc1CC2)C(C)C [Example 291],0.103,9.00 to 12.00,–,–,–,"pEC50 [1, 6]: 9.00 to 12.00; pEC50 [3]: 9.00 to 12.00; pEC50 [4, 7]: 9.00 to 12.00"
COC(=O)N[C@H](C(=O)N1CCC[C@H]1c1ncc(-c2ccc(-c3ccc(-c4cnc([C@@H]5CCCN5C(=O)[C@H](NC(=O)OC)c5ccccc5)[nH]4)cc3)cc2)[nH]1)C(C)C [Example 60],–,9.00 to 12.00,–,–,–,"pEC50 [1, 10]: 7.36 to 9.00; EC50 ([2]; 72 h): 0.02 nM; pEC50 ([3]; 72 h, Table 2, 72 hours): 9.00 to 12.00; pEC50 [4, 11]: 9.00 to 12.00"
COC(=O)N[C@@H](C(=O)N1CCC[C@H]1c1ncc(-c2ccc3c(c2)COc2c-3ccc3cc(-c4cnc([C@@H]5CCCN5C(=O)OCc5ccccc5)[nH]4)ccc23)[nH]1)c1ccccc1 [Example 5],–,9.00 to 12.00,–,–,–,"pEC50 [1, 12]: < 7.36; EC50 ([2]; 72 h): 0.037 nM; pEC50 ([3]; 72 h, Table 1, 72 hours): 7.36 to 9.00; pEC50 [4, 13]: 9.00 to 12.00"
COC(=O)N[C@H](C(=O)N1CCC[C@H]1c1ncc(-c2ccc3c(c2)C(=C(C)C)c2cc(-c4cnc([C@@H]5CCCN5C(=O)[C@@H](NC(=O)OC)C(C)C)[nH]4)ccc2-3)[nH]1)C(C)C [Example 249],0.014,9.00 to 12.00,7.36 to 9.00,7.36 to 9.00,< 8.30,–
COC(=O)NC(C(=O)N1CCC[C@H]1C1=NC(c2ccc3cc(-c4ccc5c(ccc6nc([C@@H]7CCCN7C(=O)[C@@H](NC(=O)OC)C7CCOCC7)[nH]c65)c4)ccc3c2)=CC1)c1cccnc1 (stereo partly drawn) [Example 239],0.078,9.00 to 12.00,9.00 to 12.00,9.00 to 12.00,9.00 to 12.00,–
COC(=O)N[C@H](C(=O)N1CCC[C@H]1c1ncc(-c2ccc3cc(-c4ccc(-c5cnc([C@@H]6CCCN6C(=O)[C@@H](NC(=O)OCc6ccccc6)C6CCSCC6)[nH]5)cc4)ccc3c2)[nH]1)C(C)C [Example 275],2.15,< 8.30,–,< 7.36,< 8.30,"pEC50 ([1]; genotype 1a H77 replicon, RLuc reporter): 7.36 to 9.00"
COC(=O)N[C@H](C(=O)N1CCC[C@H]1c1nc2c([nH]1)-c1ccc(-c3ccc4cc(-c5cnc([C@@H]6CCCN6C(=O)[C@H](NC(=O)OC(C)(C)C)c6ccccc6)[nH]5)ccc4c3)cc1CC2)C(C)C [Example 242],0.008,9.00 to 12.00,9.00 to 12.00,9.00 to 12.00,9.00 to 12.00,–
COC(=O)N[C@H](C(=O)N1[C@@H]2CC[C@@H](C2)[C@H]1c1nc2ccc3cc(C#Cc4ccc(-c5cnc([C@@H]6CCCN6C(=O)[C@H](NC(=O)OC)c6ccccc6)[nH]5)cc4)ccc3c2[nH]1)C1CCOCC1 [Example 283],0.007,9.00 to 12.00,9.00 to 12.00,9.00 to 12.00,9.00 to 12.00,–
COC(=O)N[C@H](C(=O)N1CCC[C@H]1c1ncc(-c2ccc(-c3ccc(-c4cnc([C@@H]5Cc6ccccc6N5C(=O)[C@@H](NC(=O)OC)C(C)C)[nH]4)cc3)cc2)[nH]1)C(C)C [Example 266],0.009,9.00 to 12.00,9.00 to 12.00,7.36 to 9.00,8.30 to 9.00,–
COC(=O)N[C@H](C(=O)N1[C@@H]2CC[C@@H](C2)[C@H]1c1ncc(-c2ccc(-c3ccc4c(ccc5nc([C@@H]6C[C@H]7C[C@H]7N6C(=O)[C@@H](NC(=O)OC)C6CCOCC6)[nH]c54)c3)cc2)[nH]1)C(C)C [Example 378],0.036,9.00 to 12.00,–,–,–,"pEC50 [1, 6]: 9.00 to 12.00; pEC50 [3]: 9.00 to 12.00; pEC50 [4, 7]: 9.00 to 12.00"
COC(=O)N[C@H](C(=O)N1CCC[C@H]1c1ncc(-c2ccc3c(c2)COc2c-3ccc3cc(-c4cnc([C@@H]5CCCN5C(=O)[C@@H](NC(=O)OC)[C@@H](C)OC)[nH]4)ccc23)[nH]1)[C@@H](C)OC [Example 17],–,9.00 to 12.00,–,–,–,"pEC50 [1, 12]: 9.00 to 12.00; EC50 ([2]; 72 h): 0.014 nM; pEC50 ([3]; 72 h, Table 1, 72 hours): 9.00 to 12.00; pEC50 [4, 13]: < 8.30"
